From patent US20130143929A1, “FUNGICIDAL IMIDAZOLES” (EI DU PONT DE NEMOURS AND COMPANY, priority 2010, published 2013)
Marks after values point to notes of the source that are not given here.

Key:
Format in all cases: in vivo
[1] = tested on: Puccinia recondite f. sp. tritici (the causal agent of wheat leaf rust); experiment: Test A: wheat leaf rust, preventive spray on wheat seedlings, visual disease rating; settings: wheat leaf rust, preventive spray on wheat seedlings
In short: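 Wheat seedlings were sprayed to run-off with compound suspended in acetone/water containing 250 ppm Trem 014 (200 ppm ≈ 800 g/ha; some at 40 ppm). Puccinia recondite spores were inoculated the next day. Plants were held 24 h saturated at 20° C, then 7 days at 20° C, and disease control was rated visually on a 0–100 scale against controls.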

[2] = tested on: Botrytis cinerea (the causal agent of tomato Botrytis); experiment: Test C: tomato Botrytis, preventive spray on tomato seedlings, visual disease rating; settings: tomato Botrytis, preventive spray on tomato seedlings
In short: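 Test suspension (acetone/water with 250 ppm Trem 014; 200 ppm equivalent to 800 g/ha) sprayed to run-off on tomato seedlings; B. cinerea spores inoculated next day. After 48 h saturated humidity at 20° C then 3 days at 24° C, disease rated visually as % control relative to untreated controls (0–100).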

[3] = tested on: Septoria tritici (the causal agent of wheat leaf blotch); experiment: Test B: wheat leaf blotch, preventive spray on wheat seedlings, visual disease rating; settings: wheat leaf blotch, preventive spray on wheat seedlings
In short: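 Wheat seedlings sprayed to run-off with compound suspension (acetone/water with 250 ppm Trem 014; 200 ppm ≈ 800 g/ha, some at 40 ppm), inoculated next day with Septoria tritici spores. 48 h saturated humidity at 24 °C, then 19 days at 20 °C; visual rating, 100 = full control.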

[4] = tested on: Blumeria graminis f. sp. tritici (also known as Erysiphe graminis f. sp. tritici, the causal agent of wheat powdery mildew); experiment: Test D: wheat powdery mildew, preventive spray on wheat seedlings, visual disease rating; settings: wheat powdery mildew, preventive spray on wheat seedlings
In short: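 Compound suspended in acetone/water (50/50) with 250 ppm Trem 014 and sprayed to run-off on wheat seedlings (200 ppm ≈ 800 g/ha), then inoculated next day with spore dust. Disease rated visually after 8 days at 20 °C as % control relative to untreated plants (0-100).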

[5] = asterisk: 40 ppm test suspension
[6] = no asterisk (standard test suspension concentration, not 40 ppm)

| Compound | Test A rating (100 = 100% disease control, 0 = no disease control relative to the controls) [1, 5] | Test C rating (100 = 100% disease control, 0 = no disease control relative to the controls) [2, 5] | Test B rating (100 = 100% disease control, 0 = no disease control relative to the controls) [3, 5] | Test D rating (100 = 100% disease control, 0 = no disease control relative to the controls) [4, 5] | Test A rating (100 = 100% disease control, 0 = no disease control relative to the controls) [1, 6] [%] | Test C rating (100 = 100% disease control, 0 = no disease control relative to the controls) [2, 6] [%] | Test B rating (100 = 100% disease control, 0 = no disease control relative to the controls) [3, 6] [%] | Test D rating (100 = 100% disease control, 0 = no disease control relative to the controls) [4, 6] [%] |
| --- | --- | --- | --- | --- | --- | --- | --- | --- |
| Cc1nc(Cl)n(-c2c(F)cc(F)cc2F)c1C(O)c1ccc(F)cc1F (stereo not drawn) [compound 83] | 100* % | 99* % | 100* % | 100* % |  |  |  |  |
| Cc1cc(F)ccc1C(O)c1c(Br)nc(C)n1-c1c(F)cccc1F (stereo not drawn) [compound 88] |  |  |  |  | 99 | 96 | 100 | 90 |
| OC(c1c(F)cc(F)cc1F)c1c(Cl)nc(Cl)n1-c1ccc(Cl)cc1Cl (stereo not drawn) [compound 90] |  |  |  |  | 100 | 98 | 100 | 99 |
| Cc1cc(F)ccc1C(O)c1c(Cl)nc(C)n1-c1c(F)cccc1F (stereo not drawn) [compound 91] |  |  |  |  | 100 | 98 | 100 | 94 |
| Cc1nc(Cl)c(C(O)c2ccc(F)cc2F)n1-c1c(F)cc(F)cc1Br (stereo not drawn) [compound 92] |  |  |  |  | 100 | 99 | 100 | 95 |
| Cc1ncc(C(O)c2ccc(F)cc2Br)n1-c1c(F)cc(F)cc1Br (stereo not drawn) [compound 94] |  |  |  |  | 100 | 99 | 100 | 56 |
| OC(c1ccc(F)cc1Br)c1cnc(C2CC2)n1-c1c(F)cccc1Br (stereo not drawn) [compound 95] |  |  |  |  | 0 | 0 | 0 | 0 |
| OC(c1ccc(F)cc1F)c1c(Br)ncn1-c1c(F)cccc1F (stereo not drawn) [compound 96] | 68* % | 40* % | 100* % | 0* % |  |  |  |  |
| Cc1ncc(C(O)c2ccc(F)cc2F)n1-c1c(F)cccc1F (stereo not drawn) [compound 97] | 95* % | 0* % | 100* % | 0* % |  |  |  |  |
| Cc1nc(Cl)c(C(O)c2ccc(F)cc2Cl)n1-c1c(F)cccc1F (stereo not drawn) [compound 98] | 100* % | 100* % | 100* % | 99* % |  |  |  |  |
| Cc1nc(Br)c(C(O)c2ccc(F)cc2Cl)n1-c1c(F)cccc1F (stereo not drawn) [compound 99] | 100* % | 99* % | 100* % | 98* % |  |  |  |  |
| Cc1nc(Cl)c(C(O)c2c(F)cc(F)cc2F)n1-c1c(F)cccc1F (stereo not drawn) [compound 100] | 100* % | 97* % | 100* % | 82* % |  |  |  |  |
| Cc1cc(F)ccc1C(O)c1c(C)nc(Cl)n1-c1ccc(F)cc1F (stereo not drawn) [compound 104] |  |  |  |  | 100 | 99 | 100 | 97 |
| Cc1nc(Cl)c(C(O)c2c(F)cccc2F)n1-c1c(F)cccc1F (stereo not drawn) [compound 105] | 99* % | 85* % | 100* % | 64* % |  |  |  |  |
| Cc1nc(Br)c(C(O)c2c(F)cccc2F)n1-c1c(F)cccc1F (stereo not drawn) [compound 106] | 99* % | 91* % | 100* % | 43* % |  |  |  |  |
| OC(c1ccc(F)cc1F)c1c(Br)nc(Br)n1-c1c(F)cc(F)cc1Cl (stereo not drawn) [compound 107] |  |  |  |  | 100 | 100 | 100 | 94 |
| OC(c1ccc(F)cc1F)c1c(Br)nc(Cl)n1-c1c(F)cc(F)cc1Cl (stereo not drawn) [compound 108] | 100* % | 67* % | 100* % | 99* % |  |  |  |  |
| Cc1cc(F)ccc1C(O)c1cnc(C)n1-c1c(F)cc(Cl)cc1F (stereo not drawn) [compound 109] | 99* % | 0* % | 94* % | 0* % |  |  |  |  |
| Cc1cc(F)ccc1C(O)c1c(Br)nc(C)n1-c1c(F)cc(Cl)cc1F (stereo not drawn) [compound 110] | 96* % | 0* % | 100* % | 0* % |  |  |  |  |
| Cc1cc(F)ccc1C(O)c1c(Cl)nc(C)n1-c1c(F)cc(Cl)cc1F (stereo not drawn) [compound 111] | 98* % | 0* % | 100* % | 0* % |  |  |  |  |
| Cc1ncc(C(O)c2ccc(Cl)cc2Cl)n1-c1c(F)cc(Cl)cc1F (stereo not drawn) [compound 112] | 74* % | 0* % | 100* % | 0* % |  |  |  |  |
